Laboratory results published in patent US20130196989A1, “COMPOSITIONS AND METHODS FOR INDUCING CELL DEDIFFERENTIATION” (The Scripps Research Institute, priority 2003, published 2013).

Experiments:
C2C12 myoblast cells [1] = system: C2C12 myoblast cells
Method: Mammalian cells (e.g., C2C12 myoblast cells) are treated with a suitable amount of a test compound (e.g., 5 μM reversine) in DMEM supplemented with 10% FBS for four days. The compound is then removed and medium is changed to ODM every two days. After seven days following induction of osteogenesis, the cells are washed with PBS (200 μL, 3 times) and fixed with 10% formalin solution (Sigma) for 20 min. The fixed cells are then washed with PBS (200 μL, 3 times) and stained with the Alkaline Phosphatase Staining Kit 86R (Sigma) as directed by the manufacturer. Images are taken on a Nikon Eclipse TE2000 microscope at 200 fold magnification.
(§1) After four days of treatment with reversine, the compound was removed and cells were then grown in osteogenic differentiation medium (ODM) or adipogenic differentiation medium (ADM).

C2C12 cells = conditions: single-cell colonies, 6 days of treatment, portions cultured in ODM and ADM
Method: Clonal analysis is used to verify that reversine can induce dedifferentiation at the single cell level. C2C12 cells were cultured from a single cell and treated with reversine. After 6 days of treatment, each colony was divided into two portions. One portion was cultured in ODM and another portion was cultured in ADM. The cells were then analyzed using the staining assays described in Example 1.

C2C12 myoblast cells [2] = conditions: 5 μM reversine, day four of compound treatment
C2C12 myoblast cells [3] = system: C2C12 myoblast cells; remark: listed apart in the source
Method: Mammalian cells (e.g., C2C12 myoblast cells) were treated with a suitable amount of a test compound (e.g., 5 μM reversine) in DMEM supplemented with 10% FBS for four days. The compound was then removed and medium was changed to adipogenic differentiation medium (ADM) containing 0.5 mM 3-isobutyl-1-methylxanthine, 2.5 μg/ml insulin, and 0.5 μM dexamethasone. Typically, the ADM is replaced every two days. After seven days following induction of adipogenesis, the cells are washed with PBS (200 μL, 3 times) and fixed with 10% formalin solution (Sigma) for 10 min. The fixed cells are then washed with PBS (200 μL, 3 times) and stained with the 0.7% Oil Red O (Sigma) as directed by the manufacturer. Images are taken on a Nikon Eclipse TE2000 microscope at 200 fold magnification.
as §1

C2C12 myoblast cells [4] = conditions: 5 μM compound for four days, then seven days in osteogenic inducing medium; BBTP substrate
Method: C2C12 cells (ATCC CRL-1772) are cultured in DMEM (Gibco) supplemented with 10% fetal bovine serum (HyClone) at 37° C. in 5% CO2.
For the small molecule screen, proliferating C2C12 cells are plated into black 384-well tissue culture plates (Greiner) at a density of 1,000 cells/well in DMEM with 10% FBS. […] After the cells are treated with test compounds for four days, the test compound is removed and the cell culture medium is changed to osteogenic differentiation medium (ODM) containing 50 μg/ml ascorbic acid 2-phosphate, 0.1 μM dexamethasone and 10 mM β-glycerophosphate. Cell culture medium is typically changed every two days. After seven additional days of culture in ODM, the ODM is removed and cells are lysed by incubation in 10 μL passive lysis buffer (Promega) for 10 min, followed by addition of 10 μL alkaline phosphatase substrate solution (AttoPhos, Promega). After a 15 minute room temperature incubation, fluorescence intensity is read on an Acquest (Molecular Devices) as directed by the manufacturer. […]

C2C12 myoblasts cells = assay: Cell death at effective concentration
Method: as §1

## c1nc2nc(Nc3ccc(N4CCOCC4)cc3)nc(NC3CCCCC3)c2[nH]1 [Compound A, 2-(4-Morpholinoanilino)-6-cyclohexylamino-purine]
C2C12 myoblast cells [1]; four days of treatment, compound removed, ODM conditions, end of day seven
  cells stained positive for ALP: 35%
C2C12 myoblast cells [1]; in the absence of ODM
  osteogenesis activity of compound alone: no osteogenesis activity
C2C12 cells
  colonies determined to be multipotent: 56 of 97
C2C12 myoblast cells [2]
  myogenic specific markers such as MyoD and myosin: began to disappear
  myotube formation: completely inhibited
C2C12 myoblast cells [3]; four days of treatment, compound removed, ADM condition, end of day seven
  cells with fat cell morphology, stained positive with Oil Red O: 40%
C2C12 myoblast cells [3]; in the absence of ADM
  adipogenesis activity of compound alone: no adipogenesis activity
C2C12 myoblast cells [4]
  level of ALP activity relative to the DMSO control treatment: 7 fold
C2C12 myoblasts cells
  cell death: no significant cell death
C2C12 myoblasts cells; C2C12 dedifferentiation
  effective concentration: 0.5 to 5 µM
